# Patent publication US5624923A, “Tricyclic diazepine vasopressin antagonists and oxytocin antagonists” (priority 1995, dated 1997)
# Columns and labels:
# Vasopressin V2 = Vasopressin V2 Antagonist Activity in Conscious Hydrated Rats; format: in vivo, rat; conditions: 10 mg/kg orally, AVP 0.4 μg/kg i.p.
# Outline: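 Four-hour urine output, osmolality and electrolytes (Na+, K+, Cl−) recorded in water-loaded rats (30 mL/kg deionized water orally) given AVP i.p. at 0.4 μg/kg. Test compounds were given orally at 0.1–100 mg/kg 1 h before AVP; 2–4 rats per compound.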
# [1] = target: T1, Human V2 Vasopressin Receptor (Homo sapiens, UniProt P30518); assay: Binding to Membranes of Mouse Fibroblast Cell Line (LV-2) Transfected with the cDNA Expressing the Human V2 Vasopressin Receptor; conditions: LV-2 cell membranes, human V2; read-out: V2 IC50 (**)
# T1 construct: expressed in transfected cells; host or cells: mouse fibroblast cell line LV-2
# Procedure: Binding to Membranes of Mouse Fibroblast Cell Line (LV-2) Transfected with the cDNA Expressing the Human V2 Vasopressin Receptor
# Flasks of 175 ml capacity, containing attached cells grown to confluence, are cleared of culture medium by aspiration. The flasks containing the attached cells are rinsed with 2×5 ml of phosphate buffered saline (PBS) and the liquid aspirated off each time. Finally, 5 ml of an enzyme free dissociation Hank's based solution (Specialty Media, Inc., Lafayette, N.J.) is added and the flasks are left undisturbed for 2 min. The content of all flasks is. poured into a centrifuge tube and the cells pelleted at 300× g for 15 min. The Hank's based solution is aspirated off and the cells homogenized with a polytron at setting #6 for 10 sec in 10.0 mM Tris.HCl buffer, pH 7.4 containing 0.25M sucrose and 1.0 mM EDTA. The homogenate is centrifuged at 1500× g for 10 min to remove ghost membranes. The supernatant fluid is centrifuged at 100,000× g for 60 min. to pellet the receptor protein. Upon completion, the pellet is resuspended in a small volume of 50.0 mM Tris. HCl buffer, pH 7.4. The protein content is determined by the Lowry method and the receptor membranes are suspended in 50.0 mM Tris.HCl buffer containing 0.1 mM phenylmethylsulfonylfluoride (PMSF) and 0.2% bovine serum albumin (BSA) to give 2.5 mg receptor protein per ml of suspension.
# Arginine^8, vasopressin (S.A. 75.0 Ci/mmole) at 0.8 nM and the reaction initiated by the addition of 80.0 μl of tissue membranes (200.0 μg tissue protein). The plates are left undisturbed on the bench top for 120 min to reach equilibrium. Non specific binding is assessed in the presence of 1.0 μM of unlabeled ligand, added in 20 μl volume. For test compounds, these are solubilized in 50% dimethylsulfoxide (DMSO) and added in 20.0 μl volume to a final incubation volume of 200 μl. Upon completion of binding, the content of each well is filtered off, using a Brandel® cell Harvester (Gaithersburg, Md.). The radioactivity trapped on the filter disk by the ligand-receptor complex is assessed by liquid scintillation counting in a Packard LS Counter, with an efficiency of 65% for tritium. The data are analyzed for IC50 values by the LUNDON-2 program for competition (LUNDON SOFTWARE, Ohio).
# oxytocin receptors = target: T2, oxytocin receptors (Rattus norvegicus, UniProt P70536); assay: Oxytocin Receptor Binding; conditions: for IC50: 1.0 nM [3H]oxytocin
# T2 construct: The uteri are dissected out, cleaned of fat and connective tissues; from tissue; host or cells: uterus of DES-treated female Sprague-Dawley rats
# T2 sequence (P70536 1-388): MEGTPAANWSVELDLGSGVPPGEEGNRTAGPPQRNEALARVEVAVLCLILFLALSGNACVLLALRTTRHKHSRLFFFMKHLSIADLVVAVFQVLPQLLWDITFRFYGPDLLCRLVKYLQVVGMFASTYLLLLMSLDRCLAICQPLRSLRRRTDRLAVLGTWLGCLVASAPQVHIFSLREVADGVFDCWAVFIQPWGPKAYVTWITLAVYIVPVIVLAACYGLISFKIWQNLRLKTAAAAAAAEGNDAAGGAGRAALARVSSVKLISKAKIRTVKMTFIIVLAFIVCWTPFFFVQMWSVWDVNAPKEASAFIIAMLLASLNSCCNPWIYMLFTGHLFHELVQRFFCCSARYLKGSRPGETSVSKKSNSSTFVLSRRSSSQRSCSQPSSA
# Outline: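 Membranes from uteri of DES-primed (0.3 mg/kg i.m., 18 h) female Sprague-Dawley rats. Competition with 1.0 nM [3H]oxytocin in 50 mM Tris.HCl pH 7.4, 5 mM MgCl2 with protease inhibitors, 60 min at 22 °C, filtration read-out. Non-specific binding with 1.0 uM unlabeled OT; IC50 calculated.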
# [2] = target: T3, V1 Receptor Subtype in Human Platelet (Homo sapiens, UniProt P37288); assay: Binding to Vasopressin V1 receptor subtype in Human Platelet Membranes; conditions: human platelet membranes
# T3 construct: tissue Hudson Valley Blood Services, Westchester Medical Center, Valhalla, N.Y; host or cells: human platelets (frozen platelet rich plasma)
# Procedure: Radioligand Binding Experiments with Human Platelet Membranes (a) Platelet Membrane Preparation: Frozen platelet rich plasma (PRP), (Platelet Source: Hudson Valley Blood Services, Westchester Medical Center, Valhalla, N.Y.) are thawed to room temperature. The tubes containing the PRP are centrifuged at 16,000×g for 10 min. at 4° C. and the supernatant fluid discarded. […] The suspension is recentrifuged at 16,000× g for 10 min. This washing step is repeated one more time. The wash discarded and the lysed pellets homogenized in low ionic strength buffer of Tris.HCl, 5.0 mM, pH 7.5 containing 5.0 mM EDTA. The homogenate is centrifuged at 39,000× g for 10 min. The resulting pellet is resuspended in Tris. […] The final pellet is resuspended in 50.0 mM Tris. HCl buffer pH 7.4 containing 120 mM NaCl and 5.0 mM KCl to give 1.0-2.0 mg protein per ml of suspension. […] Platelet Membranes […] Then add 20 μl of [^3 H]Ligand (Manning or […] Vasopressin), to give final concentrations ranging from 0.01 to 10.0 nM. Initiate the binding by adding 80.0 μl of platelet suspension (approx. 100 μg protein). Mix all reagents by pipetting the mixture up and down a few times. Non specific binding is measured in the presence of 1.0 μM of unlabeled ligand (Manning or […] Vasopressin). Let the mixture stand undisturbed at room temperature for ninety (90) min. Upon this time, rapidly filter off the incubate under vacuum suction over GF/B filters, using a Brandel Harvester. Determine the radioactivity caught on the filter disks by the addition of liquid scintillant and counting in a liquid scintillator.
# T1 sequence (P30518 whole entry): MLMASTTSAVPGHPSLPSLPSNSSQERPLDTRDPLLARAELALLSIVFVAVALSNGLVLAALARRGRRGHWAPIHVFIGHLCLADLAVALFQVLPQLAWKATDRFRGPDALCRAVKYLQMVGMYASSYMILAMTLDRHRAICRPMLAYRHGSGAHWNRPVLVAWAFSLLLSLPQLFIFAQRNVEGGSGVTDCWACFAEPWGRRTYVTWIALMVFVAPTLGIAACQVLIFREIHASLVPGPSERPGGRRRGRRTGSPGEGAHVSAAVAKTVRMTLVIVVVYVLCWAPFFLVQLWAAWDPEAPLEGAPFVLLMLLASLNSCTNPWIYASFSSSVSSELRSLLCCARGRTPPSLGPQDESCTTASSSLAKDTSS
# T3 sequence (P37288 whole entry): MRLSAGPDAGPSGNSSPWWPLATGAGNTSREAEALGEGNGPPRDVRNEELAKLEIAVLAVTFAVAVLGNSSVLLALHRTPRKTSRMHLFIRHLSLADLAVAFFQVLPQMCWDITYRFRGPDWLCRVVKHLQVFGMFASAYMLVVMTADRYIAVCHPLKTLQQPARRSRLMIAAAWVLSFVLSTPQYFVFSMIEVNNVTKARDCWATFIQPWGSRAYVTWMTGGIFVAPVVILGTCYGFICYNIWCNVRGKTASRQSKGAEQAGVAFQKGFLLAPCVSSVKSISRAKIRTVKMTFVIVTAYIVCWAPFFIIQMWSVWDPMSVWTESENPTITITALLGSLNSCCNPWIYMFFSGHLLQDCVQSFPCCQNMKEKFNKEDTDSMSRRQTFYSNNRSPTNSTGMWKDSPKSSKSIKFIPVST
SMILES,Osmolality (Vasopressin V2) [mOsm/kg],Urine Volume (Vasopressin V2) [ml/4 hrs],IC50 [1] [nM],IC50 (oxytocin receptors) [nM],inhibition at 10 µM (oxytocin receptors; [3H]oxytocin) [%],IC50 [2] [nM],"inhibition at 5 µM (oxytocin receptors; dose 5 μM, [3H]oxytocin) [%]"
"O=C(Nc1ccc(C(=O)N2Cc3ccc(Cl)n3Cc3ccccc32)cc1)c1ccc(Cl)cc1Cl [Example 54, N-[4-(3-Chloro-5H-pyrrolo[2,1-c]-[1,4]benzodiazepin-10(11H)yl-carbonyl)phenyl]-2,4-dichloro-benzamide]",1275,5,7,160,94,310,–
"Cc1ccc(F)cc1C(=O)Nc1ccc(C(=O)N2Cc3ccnn3Cc3ccccc32)c(Cl)c1 [Example 518, N-[4-(4H-Pyrazolo[5,1-c][1,4]benzodiazepin-5(10H)-ylcarbonyl)-3-chlorophenyl]-5-fluoro-2-methylbenzamide]",363,17.5,1.7,–,–,220,–
"Cc1ccccc1C(=O)Nc1ccc(C(=O)N2Cc3ccnn3Cc3ccccc32)c(Cl)c1 [Example 519, N-[4-(4H-Pyrazolo[5,1-c][1,4]benzodiazepin-5(10H)-ylcarbonyl)-3-chlorophenyl]-2-methylbenzamide]",399,19.9,3.2,480,97,120,–
"O=C(Nc1ccc(C(=O)N2Cc3ccnn3Cc3ccccc32)c(Cl)c1)c1ccc(Cl)cc1Cl [Example 520, N-[4-(4H-Pyrazolo[5,1-c][1,4]benzodiazepin-5(10H)-ylcarbonyl)-3-chlorophenyl]-2,4-dichlorobenzamide]",394,18.5,4.4,2200,79,850,–
"O=C(Nc1ccc(C(=O)N2Cc3cccn3Cc3ccccc32)c(Cl)c1)c1ccccc1F [Example 523, N-[4-(5H-pyrrolo[2,1-c][1,4]benzodiazepin-10(11H)-ylcarbonyl)-3-chlorophenyl]-2-fluorobenzamide]",1218,5,2.8,–,–,110,–
"CSc1ccccc1C(=O)Nc1ccc(C(=O)N2Cc3cccn3Cc3ccccc32)c(Cl)c1 [Example 524, N-[4-(5H-pyrrolo[2,1-c][1,4]benzodiazepin-10(11H)-ylcarbonyl)-3-chlorophenyl]-2-(thiomethylbenzamide)]",528,10,1.2,1800,84,170,–
"O=C(Nc1ccc(C(=O)N2Cc3cccn3Cc3ccccc32)c(Cl)c1)c1ccccc1Cl [Example 526, N-[4-(5H-pyrrolo[2,1-c][1,4]benzodiazepin-10(11H)-ylcarbonyl]-3-chlorophenyl]-2-chlorobenzamide]",455,17.8,3.3,470,97,50,–
"O=C(Nc1ccc(C(=O)N2Cc3cccn3Cc3ccccc32)c(Cl)c1)c1c(Cl)cccc1Cl [Example 529, N-(4-(5H-pyrrolo[2,1-c][1,4]benzodiazepin-10(11H-)-ylcarbonyl]-3-chlorophenyl]-2,6-dichlorobenzamide]",569,10.5,2,450,92,990,–
"O=C(Nc1ccc(C(=O)N2Cc3cccn3Cc3ccccc32)c(Cl)c1)c1cccc(F)c1 [Example 538, N-[4-(5H-pyrrolo[2,1-c][1,4]benzodiazepin-10(11H)-ylcarbonyl)-3-chlorophenyl]-3-fluorobenzamide]",–,–,1,900,90,52,–
"Cc1c(F)cccc1C(=O)Nc1ccc(C(=O)N2Cc3cccn3Cc3ccccc32)cc1Cl [Example 546, N-[4-(5H-pyrrolo[2,1-c][1,4]benzodiazepin-10(11H)-ylcarbonyl)-2-chlorophenyl]-3-fluoro-2-methylbenzamide]",–,–,73,990,91,66,–
"Cc1ccc(F)cc1C(=O)Nc1ccc(C(=O)N2Cc3cccn3Cc3ccccc32)cc1Cl [Example 547, N-[4-(5H-pyrrolo[2,1-c][1,4]benzodiazepin-10(11H)-ylcarbonyl)-2-chlorophenyl]-5-fluoro-2-methylbenzamide]",–,–,4,260,–,16,97
"O=C(Nc1ccc(C(=O)N2CCc3cccn3-c3ccccc32)c(Cl)c1)c1ccc(Cl)cc1Cl [Example 609, N-[4-[(6,7-Dihydro-5H-pyrrolo[1,2-a]-[1,5]benzodiazepin-5-yl)carbonyl]-3-chlorophenyl]-2,4-dichlorobenzamide]",–,–,21,2700,66,2400,–
"Cc1ccc(F)cc1C(=O)Nc1ccc(C(=O)N2Cc3ccc(CN(C)C)n3Cc3ccccc32)c(Cl)c1 [Example 668, N-[4-[[3-[(dimethylamino)methyl]-5H-pyrrolo[2,1-c][1,4]benzodiazepin-10(11H)-yl]carbonyl]-3-chlorophenyl]-5-fluoro-2-methylbenzamide]",378,20.7,29,–,–,170,–
